The text below walks through data of patent US20110251135A1, “INHIBITORS OF PERITONEAL SEEDING OF CANCER CELLS” (University of Utah Research Foundation, priority 2008, published 2011).

Assay [1] concerns DLD-1, HCT-116, HT-29 colon cancer cell lines. Briefly: Cell proliferation assay (crystal violet, 96-well). It counts as cell-based, human. The procedure: (§1) The data points represent the means of triplicate experiments and the error bars the standard errors of the means. […] The percent of apoptotic cells was then determined by the annexin V assay. […] The results shown are typical of two separate experiments. […] Immunoblots were performed for c-IAP-2, TRAF-1, TRAF-2, and FLIP. All lanes contain equal total protein.
For the cell proliferation assay, cells were dispersed and plated at 40,000 cells/well in 96-well dishes. At various days in culture, the cells were gently washed twice with 100 μL/well of ice-cold blocking buffer (1% radioimmunoassay grade BSA in PBS) and twice with 100 μL/well of ice-cold PBS. The cells were fixed for 10 min in 100% ice-cold methanol (100 μL/well), then allowed to air-dry. The cells were stained with 100 μL/well of 0.1% crystal violet in H20 for 10 minutes, then washed gently four times with dd H20 and four times with PBS. The plates were then air-dried completely. The stained cells were then solubilized in 1% sodium deoxycholate, and the plates read at 590 nm in a spectrophotometer. The absorption at 590 nm is proportional to the number of attached cells.

For a further assay, the system named is NF-κB. Nature of the assay: NF-κB electrophoretic mobility shift assay (EMSA), nuclear lysates of treated HT-29 cells. The assay is classed as cell-based, human. Conditions: 10 μM, 3 and 6 hour incubations. (In EMSA bound probe runs differently from free probe, usually more slowly.)
The subject of a further assay is DLD-1 cells. Nature of the assay: Soft agar colony formation assay. It counts as cell-based, human. The conditions noted are these: 10 μM for 6 days. As for the experimental part: (§2) DLD-1, HCT-116, and HT-29 cells were cultured for 6 days in soft agar in the presence of DMSO (control), 10 μM BAY 11-7082, or 10 μM BAY 11-7085. The data points represent the means of colony counts per field (20×) performed in 5 different regions of the culture dishes. The data shown represent a typical result of two separate experiments. FIG. 2B and FIG. 2C are graphs that show athymic mice received subcutaneous injections of HT-29 (FIG. B) or HCT-116 (FIG. C) cells, followed by […] of BAY 11-7085 (dark bars) or DMSO (white bars) intraperitoneally twice weekly. The bars represent the 25-75% ranges of the tumor volumes and the horizontal lines in the bars are the medians. Using the Kruskal-Wallace statistical test to compare the median tumor volumes between BAY 11-7085 and DMSO yielded a p-value of 0.005 for HT-29 cells but >0.05 for HCT-116 cells.
(§3) Anchorage-independent cell growth is a hallmark of cancer cells and is a good correlation to tumorigencity in vivo. Therefore, the effects of BAY 11-7082 and BAY 11-7085 were examined on colon cancer cell growth using the soft agar colony formation assay.

The subject of the next assay is HCT-116 cells. Nature of the assay: Soft agar colony formation assay. It counts as cell-based, human. The conditions noted are these: 10 μM for 6 days. The procedure:
as §2, §3

A further assay concerns HT-29 cells. Nature of the assay: Soft agar colony formation assay. The assay is classed as cell-based, human. The conditions noted are these: 10 μM for 6 days. The procedure: as §2, §3
The next assay concerns HT-29 xenografts. Nature of the assay: Subcutaneous colon cancer xenograft in athymic mice. It counts as in vivo, mouse. Conditions: athymic mice; compound alone; cell line not given. The procedure:
as §2
HT-29 and HCT-116 cells were harvested in 0.25% trypsin-PBS-EDTA, washed once in media and PBS, and resuspended in PBS at 1 million cells per 200 μL. One million cells were injected either subcutaneously in the backs or intraperitoneally in 5 week old female nu/nu athymic mice (Charles River Labs). For the mice with subcutaneous tumors, the tumors were allowed to establish themselves for 10 days after which they were randomized to BAY 11-7085 or DMSO. For the mice with intraperitoneal tumors, the mice received DMSO or BAY 11-7085 (5 mg/kg) 24 hours before the cancer cells were injected intraperitoneally. […] Subcutaneous tumor sizes were determined by measuring the length and width with calipers. These studies were approved by the University of Utah Institutional Review Board and Institutional Animal Care and Use Committee and performed in the Animal Resource Center. Mice were euthanized when they experienced a greater than 10% loss in body weight or if they appeared ill. Post-mortem examinations included sectioning of kidney, lung, and liver tissues which were stained with hematoxylin and eosin followed by examination for tissue toxicity/damage by an experienced mouse pathologist (E.J.E.) who was blinded to therapy.
HCT-116 and HT-29 cell lines were used to generate subcutaneous tumors in athymic female mice. The mice were subsequently randomized to be treated with vehicle (DMSO) alone or BAY 11-7085 […] twice weekly for 28 days.

The test system of another assay is adherent HT-29 cells. Briefly: Annexin V-FITC apoptosis assay, adherent cells. It counts as cell-based, human.
Text: FIG. 3 is a group of graphs that show NF-κB inhibitors cause apoptosis of colon cancer cells. […] The data points represent the average percent of annexin V-positive, propidium iodide-negative cells (of the total cells counted) from triplicate experiments. The error bars represent the standard error of the means. […] The results shown are a graphic representation of individual flow cytometry results expressed as the percentage of cells that were annexin V-positive of those that excluded propidium iodide. […] An immunoblot of the lysates for cleaved PARP was performed. Each lane represents equal total protein concentrations. […] The cells were allowed to adhere to plastic dishes for 1 hour after which they were washed gently in PBS and stained with crystal violet. The crystal violet stained cells were solubilized in deoxycholate and the absorbance detected in a spectrophotometer at 590 nm. The adherent cells were expressed as a fraction of the controls. Each data point represents the average of triplicate experiments and the error bars the standard errors of the means.
as §1
(§4) Single cell suspensions were plated at 100,000 cells per well in 24-well plates in media containing DMSO, BAY 11-7082, BAY 11-7085, or MG-132 for 8-24 hours in an incubator. Alternatively, DMSO, BAY 11-7082, BAY 11-7085, or MG-132 were added to cells that were confluent and adherent for several days. The nonadherent cells were aspirated off with the media and spun for 3 minutes at 2,000 rpm in 15 mL polypropylene tubes. The adherent cells were washed twice with PBS, dispersed in trypsin, and spun down for 3 minutes at 2,000 rpm in 15 mL polypropylene tubes. The nonadherent and adherent cells were resuspended in 1× binding buffer (10 mM HEPES/NaOH, pH 7.4, 140 mM NaCl, and 2.5 mM CaCl2) to a final concentration of 10^6 cells/mL. 100 μL of the cell solution were transferred to a 5 mL culture tube and incubated with 5 μL of annexin V-FITC-conjugated monoclonal antibody (Pharmingen) and 10 μl, of propidium iodide (from a 50 μg/mL stock solution made in PBS) in the dark at 25° C. for 15 minutes. 400 μL of binding buffer was added to each tube and the cells were analyzed by flow cytometry immediately. The percent of apoptosis was determined as the percent of annexin V-positive, propidium iodide-negative cells of the total cells counted.

Assay [2] deals with IκB phosphorylation and TNFα-induced NF-κB activation. The conditions noted are these: Pierce et al., J Biol Chem 272:21096-103, 1997; cited from earlier work.
Another assay has as its system JNK/SAPK and p38. Conditions: Pierce et al., J Biol Chem 272:21096-103, 1997; cited from earlier work.
Assay [3] has as its system transiently suspended HT-29 cells. Briefly: Apoptosis of transiently suspended cells during readhesion (annexin V assay). It counts as cell-based, human. Conditions: for apoptosis of readhering HT-29 colon cancer cells: NF-κB inhibitors other than BAY 11-7085. As for the experimental part:
HT-29 cells that were either transiently suspended with trypsin-EDTA or adherent for three days, were treated at time zero with DMSO or 10-100 μM BAY 11-7085. The percent of apoptotic cells was determined using the annexin V flow cytometry assay and graphed versus the dose of BAY 11-7085. FIG. 4B are photographs showing DLD-1, FIG. 4C are photographs showing HCT-116, and FIG. 4D are photographs showing HT-29 cells that were transiently suspended in trypsin-EDTA and allowed to readhere to glass coverslips for 1-24 hours. The cells were fixed and immunostained with an NF-κB p65 subunit monoclonal antibody.
The transiently suspended cells were lysed and allowed to bind to DNA oligonucleotides, containing the NF-κB consensus binding site, that were immobilized to 96-well plates. NF-κB protein bound to the oligonucleotides was detected by an antibody to the p65 subunit that only recognized p65 that is bound to DNA. The positive control was HeLa cells that were stimulated with TNFα. A control was performed using excess free NF-κB oligonucleotides (Competitor). […] NF-κB binding activity was determined by the TransAM assay as in FIG. 5A. […] The data shown represent typical results of three separate experiments. […] An immunoblot for COX-2 was performed.
The percentage of apoptotic cells was determined using the annexin V assay. The data points represent the averages of three experiments; bars, +−.SE. E. DLD-1 and F. HT-29 cells were transduced with an adenovirus containing the IκB super-repressor construct. After 3 days, the cells were transiently suspended and allowed to readhere in the presence of subapoptotic concentrations of BAY 11-7085 or DMSO (vehicle) for 8 hours. The data are expressed as fractions of cells surviving compared with the controls (no adenovirus) and were quantitatively determined by staining the remaining adherent cells with crystal violet.
as §4
Various concentrations of BAY 11-7085 were added to HT-29 cells that were transiently suspended in trypsin-PBS for approximately 15 minutes before replating. The transiently suspended cells were quickly allowed to readhere in order to prevent anoikis. Alternatively, BAY 11-7085 was added to adherent HT-29 cell monolayers.

Assay [4] deals with colon and pancreatic cancer cells. Nature of the assay: Apoptosis of colon and pancreatic cancer cells during readhesion. The assay is classed as cell-based, human. The conditions noted are these: not shown.

As for `Cc1ccc(S(=O)(=O)/C=C/C#N)cc1` [BAY 11-7082, (2E)-3-(tolylsulfonyl)-2-propenenitrile], in assay [1] (10 μM, cultured up to 8 days), the cell proliferation result is “but not BAY 11-7082 greatly inhibited cell proliferation”. The “inhibition of NF-κB activity (EMSA)” value in the assay on NF-κB is “more profound inhibition of NF-κB activity occurred with BAY 11-7085 than BAY 11-7082”. Besides, the anchorage-independent proliferation result in the assay on DLD-1 cells is reported as “significantly inhibited”; in the assay with HCT-116 cells, “but not HCT-116”; in the assay with HT-29 cells, “significantly inhibited”. Also, the “colon cancer xenograft growth” value in the assay on HT-29 xenografts is recorded as “inhibit colon cancer xenograft growth”. Besides, in the assay with adherent HT-29 cells (adherent HT-29, 24 hours, BAY compounds at doses up to 20, MG-132 20 μM), the “level of apoptosis (annexin V-positive, propidium iodide-negative cells)” value is reported as “caused an increase in the level of apoptosis”. Moreover, in [2], the “IκB phosphorylation and TNFα-induced NF-κB activation” value is “inhibit IκB phosphorylation and TNFα-induced NF-κB activation”. Further, the “activation of JNK/SAPK and p38” value with JNK/SAPK and p38 was “activate JNK/SAPK and p38”.
In the case of `S=C(S)N1CCCC1` [PDTC, pyrrolidine dithiocarbamate], the “induction of apoptosis of HT-29 cells during readhesion” value in assay [3] (various concentrations, 4 hours, compared with BAY 11-7085) was “caused apoptosis of HT-29 cells during readhesion”.
As to `CC(C)C[C@H](NC(=O)[C@H](Cc1ccccc1)NC(=O)c1cnccn1)B(O)O` [bortezomib], the “apoptosis of readhering HT-29 colon cancer cells” value in assay [3] is recorded as “failed to induce apoptosis”. Also, the “apoptosis of colon and pancreatic cancer cells during readhesion” value in assay [4] was “failed to induced apoptosis”.
Regarding “cA2: antagonistic and chimeric TNFα monoclonal antibody, inhibits TNFα binding to TNFα receptors”, the “colon cancer cell proliferation” value in assay [1] (cA2 at 10 and 50 μg/mL, after several days of treatment) is reported as “caused a significant inhibition of colon cancer cell proliferation”. Further, the “effect of cA2 pretreatment on BAY 11-7085-induced apoptosis” value in the assay on adherent HT-29 cells (HT-29, 50 μg/mL cA2 for 48 hours, then 20 μM BAY 11-7085 for 24 hours) is listed as “did not diminish BAY 11-7085-induced apoptosis”.
Regarding infliximab, the “apoptosis of readhering HT-29 colon cancer cells” value in [3] was “failed to induce apoptosis”. Moreover, in [4], the “apoptosis of colon and pancreatic cancer cells during readhesion” value is listed as “failed to induced apoptosis”.
